One block for each molecule: values may come before it.
Assays:
[1] = Clearance in rat; type: ADME, organism-based; conditions: in vivo
[2] = Octanol-buffer partition coefficient, log D of the compound at pH 7.4 after 30 mins by shake-flask method; type: physicochemical
[3] = Fraction unbound in rat plasma by equilibrium dialysis technique; type: ADME, cell-free
[4] = Clearance in rat hepatocytes measured per 10^6 cells; type: ADME, cell-based, Hepatocyte; conditions: read-out: CLH
in vivo = conditions: rat
[5] = Apparent permeability from apical to basolateral side in human Caco2 cells; type: ADME, cell-based; conditions: Caco-2
[6] = Inhibition of N-terminal 6-His-tagged cynomolgus monkey full length 11beta-HSD1 assessed as conversion of cortisone to cortisol after 25 mins by HTRF assay; parameters: species or system Macaca fascicularis
[7] = Drug metabolism in human hepatocytes assessed as ratio of glucuronidated to oxidized compound level by LC-MS/MS analysis; type: ADME, cell-based, Hepatocyte
[8] = Inhibition of N-terminal 6-His-tagged dog full length 11beta-HSD1 assessed as conversion of cortisone to cortisol after 25 mins by HTRF assay; parameters: species or system Canis lupus familiaris
[9] = Drug excretion in bile duct cannulated rat urine assessed as compound remaining by HPLC analysis; type: ADME, tissue-based; conditions: read-out: Stability
[10] = Drug excretion in bile duct cannulated rat urine assessed as ratio of glucuronidated to oxidized compound level by HPLC analysis; type: ADME; conditions: in vivo
[11] = Drug excretion in bile duct cannulated rat bile assessed as ratio of glucuronidated to oxidized compound level by HPLC analysis; type: ADME, tissue-based; conditions: in vivo
[12] = Drug metabolism in dog hepatocytes assessed as ratio of glucuronidated to oxidized compound level by LC-MS/MS analysis; type: ADME, cell-based, Canis lupus familiaris, Hepatocyte
[13] = Drug metabolism in rat hepatocytes assessed as ratio of glucuronidated to oxidized compound level by LC-MS/MS analysis; type: ADME, cell-based, Hepatocyte

Structure (SMILES): CCCSc1nc(N2CCCC(C(C)(C)C(=O)O)C2)ccc1C(=O)NC1CCCCC1 (configuration not stated)
- clearance [1]: 9 mL/min/kg
- logD at 0.5 h [2]: 3.3
- fraction unbound [3]: 0.004
- hepatocyte CLint [4]: 22 µL/min/1e6 cells
- bioavailability (in vivo): 84%

Structure (SMILES): CCCSc1nc(N2CCC[C@@H](CC(=O)NS(C)(=O)=O)C2)ccc1C(=O)NC1CCCCC1
- clearance [1]: 35 mL/min/kg
- logD at 0.5 h [2]: 1.6
- fraction unbound [3]: 0.017
- hepatocyte CLint [4]: 38 µL/min/1e6 cells
- bioavailability (in vivo): 5%

Structure (SMILES): CCCSc1nc(N2CCC[C@@H](Cc3nnn[nH]3)C2)ccc1C(=O)NC1CCCCC1
- clearance [1]: 31 mL/min/kg
- logD at 0.5 h [2]: 2.4
- fraction unbound [3]: 0.006
- hepatocyte CLint [4]: 9 µL/min/1e6 cells
- bioavailability (in vivo): 21%

Structure (SMILES): CCCSc1nc(N2CCCC(C3(C(=O)O)CC3)C2)ccc1C(=O)NC1CCCCC1 (configuration not stated)
- clearance [1]: 8 mL/min/kg
- logD at 0.5 h [2]: 3.5
- fraction unbound [3]: 0.002
- hepatocyte CLint [4]: 15 µL/min/1e6 cells
- bioavailability (in vivo): 71%

Structure (SMILES): CCCSc1nc(N2CCC[C@@H](CC(=O)O)C2)ccc1C(=O)NC1CCCCC1 [AZD-4017]
- IC50 [6]: 29 nM
- Ratio [7]: 6
- fraction unbound [3]: 0.018
- IC50 [8]: 3.77 µM
- dose excreted [9]: 4%
- Ratio [10]: 2.4
- Ratio [11]: 7.5
- Ratio [12]: 4.1
- hepatocyte CLint [4]: < 2 µL/min/1e6 cells
- bioavailability (in vivo): 66%
- Ratio [13]: 2.1

Now from value to molecule:

- clearance [1]: 2 mL/min/kg
- logD at 0.5 h [2]: 1.7
- fraction unbound [3]: 0.01
- hepatocyte CLint [4]: < 2 µL/min/1e6 cells
- bioavailability (in vivo): 96%
Structure (SMILES): CCCSc1nc(N2CC[C@H](CC(=O)O)C2)ccc1C(=O)NC1CCCCC1

- clearance [1]: 43 mL/min/kg
- logD at 0.5 h [2]: 1.5
- fraction unbound [3]: 0.04
- hepatocyte CLint [4]: 4 µL/min/1e6 cells
- bioavailability (in vivo): 57%
Structure (SMILES): O=C(N[C@H]1C2CC3CC1C[C@](O)(C3)C2)c1ccc(N2C[C@@H]3[C@H](C2)[C@H]3C(=O)O)nc1SC1CCCC1

- clearance [1]: 18 mL/min/kg
- logD at 0.5 h [2]: 1.2
- fraction unbound [3]: 0.034
- hepatocyte CLint [4]: 20 µL/min/1e6 cells
- Papp A→B [5]: 2 ×10⁻⁶ cm/s
- bioavailability (in vivo): 3%
Structure (SMILES): O=C(O)[C@H]1[C@@H]2CN(c3ccc(C(=O)N4CCC(c5cccnc5)C4)c(SC4CCCC4)n3)C[C@@H]21 (some centres not stated)

- clearance [1]: 3 mL/min/kg
- logD at 0.5 h [2]: 1.1
- fraction unbound [3]: 0.012
- hepatocyte CLint [4]: 3 µL/min/1e6 cells
- bioavailability (in vivo): 52%
Structure (SMILES): CCCSc1nc(N2CCC(C(=O)O)C2)ccc1C(=O)NC1CCCCC1 (configuration not stated)

- clearance [1]: 9 mL/min/kg
- logD at 0.5 h [2]: 3.4
- fraction unbound [3]: 0.005
- hepatocyte CLint [4]: 7 µL/min/1e6 cells
- bioavailability (in vivo): 94%
Structure (SMILES): O=C(N[C@H]1C2CC3CC1C[C@](OC(F)F)(C3)C2)c1ccc(N2C[C@@H]3[C@H](C2)[C@H]3C(=O)O)nc1SC1CCCC1

- clearance [1]: 2 mL/min/kg
- logD at 0.5 h [2]: 1.8
- fraction unbound [3]: 0.025
- hepatocyte CLint [4]: < 2 µL/min/1e6 cells
- bioavailability (in vivo): 80%
Structure (SMILES): CCCSc1nc(N2C[C@@H]3[C@H](C2)[C@H]3C(=O)O)ccc1C(=O)NC1CCCCC1

- clearance [1]: 42 mL/min/kg
- logD at 0.5 h [2]: 0.8
- fraction unbound [3]: 0.108
- hepatocyte CLint [4]: < 2 µL/min/1e6 cells
- bioavailability (in vivo): 48%
Structure (SMILES): CCCSc1nc(N2C[C@@H]3[C@H](C2)[C@H]3C(=O)O)ccc1C(=O)N[C@H]1C2CC3CC1C[C@](O)(C3)C2

— ChEMBL document CHEMBL3217743, “Reduction of acyl glucuronidation in a series of acidic 11-hydroxysteroid dehydrogenase type 1 (11-HSD1) inhibitors: the discovery of AZD6925” (Medchemcomm, 2012)
